Measured values from US9809583B2 (priority 2014, dated 2017).
Where two headings read alike, the source gives them in different places.

Legend:
androgen receptor (hAR) [1] = biological target: T1, androgen receptor (hAR) (Homo sapiens (Human), UniProt P10275); assay: Test of transcriptional activity (hAR / ARE-Luc dual-luciferase assay in CHO cells); assay type: cell-based; conditions: EC50 [nM] (mean ± SE), CHO cells with hAR and ARE-Luc, 24 hours; 10 nM DHT = 100%
Summary of the method: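 CHO cells cultured 24 h, then transfected with hAR and ARE-Luc plasmids. Transfected cells treated with 0.1˜10,000 nM compound for 24 h; transcriptional activity read by dual-luciferase reporter.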

androgen receptor (hAR) [2] = biological target: T1, androgen receptor (hAR); assay: biochemical; assay type: binding
Experimental: In order to examine binding ability of the agonists of the present invention to androgen receptors, the following in-vitro experiment was performed. African green monkey kidney fibroblast-like cell line, COS-7 (ATCC, #CRL-1651) was seeded in a 48-well plate at a density of 2.5×10^4 cells/well, and cultured for 24 hours. Then, a plasmid hAR-mixed medium was added thereto. […] Thereafter, the cells were lysed and the amount of [3H]MIB bound to the intracellular androgen receptors was measured using a radiation dosimeter.

castrated male rats = assay: Efficacy test in castrated male rat (Hershberger assay); assay type: in vivo, SD (Sprague-Dawley) rat; conditions: castrated male SD rats, oral once a day for 14 days
Experimental: SD (Sprague-Dawley) male rats (7-week-old) were castrated under ketamine/xylazine anesthesia, and 5 rats were randomly assigned to one group. From the next day, the agonists were dissolved in a vehicle solution and orally administered at a dose of 5 ml per kg once a day for 14 days. As the vehicle, DMSO, Co-solvent, and DW were prepared at a ratio of 4:80:16 (v/v/v), and Co-solvent was prepared by mixing PEG400, Ethanol, and Tween 80 at a ratio of 85:10:5 (v/v/v). 24 hours after last administration of the drug, their body weight was measured and killed. Thereafter, levator ani muscle, ventral prostate, and seminal vesicles were removed and weighed (Hershberger assay). The following Table 6 represents the result of the efficacy test in castrated male rats.

[3] = 1 nM [3H]MIB, hAR-transfected COS-7 cells, 2 hours, read-out: IC50 [nM] (mean ± SE)

T1 sequence (P10275 whole entry): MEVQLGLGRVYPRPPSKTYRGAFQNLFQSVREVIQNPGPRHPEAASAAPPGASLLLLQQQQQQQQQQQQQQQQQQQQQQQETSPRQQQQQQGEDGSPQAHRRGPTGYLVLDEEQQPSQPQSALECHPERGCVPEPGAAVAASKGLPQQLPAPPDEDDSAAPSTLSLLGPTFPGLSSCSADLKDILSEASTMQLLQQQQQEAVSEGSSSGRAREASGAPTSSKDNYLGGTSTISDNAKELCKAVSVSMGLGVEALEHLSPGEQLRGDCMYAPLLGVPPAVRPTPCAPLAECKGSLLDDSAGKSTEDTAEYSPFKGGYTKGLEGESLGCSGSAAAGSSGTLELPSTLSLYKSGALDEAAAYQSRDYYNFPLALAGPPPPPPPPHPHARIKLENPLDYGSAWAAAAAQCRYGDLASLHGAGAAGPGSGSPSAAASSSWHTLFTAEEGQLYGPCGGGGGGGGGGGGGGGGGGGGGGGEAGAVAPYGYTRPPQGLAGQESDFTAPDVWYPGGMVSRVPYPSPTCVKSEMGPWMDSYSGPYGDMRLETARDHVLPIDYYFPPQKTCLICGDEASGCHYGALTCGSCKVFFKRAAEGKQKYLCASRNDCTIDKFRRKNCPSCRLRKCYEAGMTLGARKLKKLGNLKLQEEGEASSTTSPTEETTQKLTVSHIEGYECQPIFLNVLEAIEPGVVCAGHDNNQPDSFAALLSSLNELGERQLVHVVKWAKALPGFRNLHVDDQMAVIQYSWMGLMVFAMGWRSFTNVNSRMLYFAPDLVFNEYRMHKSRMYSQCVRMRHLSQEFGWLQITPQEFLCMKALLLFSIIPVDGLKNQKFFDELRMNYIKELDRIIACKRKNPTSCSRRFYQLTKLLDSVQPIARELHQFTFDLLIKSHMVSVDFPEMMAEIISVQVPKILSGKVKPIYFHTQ

N#Cc1ccc(N2C[C@@H](CSc3ccc(Cl)cc3)O[C@@H]2C(F)(F)F)cc1C(F)(F)F [Example 26, 4-((2R,5S)-5-(((4-chlorophenyl)thio)methyl)-2-(trifluoromethyl)oxazolidin-3-yl)-2-(trifluoromethyl)benzonitrile]
EC50 (androgen receptor (hAR) [1]): 8.6 nM | IC50 (androgen receptor (hAR) [2]; [3]): 43.6 nM

N#Cc1ccc(OC[C@@H]2CN(c3ccc(C#N)c(C(F)(F)F)c3)[C@H](C(F)(F)F)O2)cc1 [Example 6, 4-((2S,5S)-5-((4-cyanophenoxy)methyl)-2-(trifluoromethyl)oxazolidin-3-yl)-2-(trifluoromethyl)benzonitrile]
EC50 (androgen receptor (hAR) [1]): 4.1 nM | IC50 (androgen receptor (hAR) [2]; [3]): 11 nM

CC(=O)Nc1ccc(OC[C@@H]2CN(c3ccc(C#N)c(C(F)(F)F)c3)[C@H](C(F)(F)F)O2)cc1 [Example 30, N-(4-(((2S,5S)-3-(4-cyano-3-(trifluoromethyl)phenyl)-2-(trifluoromethyl)oxazolidin-5-yl)methoxy)phenyl)acetamide]
IC50 (androgen receptor (hAR) [2]; [3]): 142 nM

N#Cc1ccc(COC[C@@H]2CN(c3ccc(C#N)c(C(F)(F)F)c3)[C@@H](C(F)(F)F)O2)cc1 [Example 2, 4-((2R,5S)-5-(((4-cyanobenzyl)oxy)methyl)-2-(trifluoromethyl)oxazolidin-3-yl)-2-(trifluoromethyl)benzonitrile]
EC50 (androgen receptor (hAR) [1]): 133 nM | IC50 (androgen receptor (hAR) [2]; [3]): 23.9 nM

COc1ccc(OC[C@@H]2CN(c3ccc(C#N)c(C(F)(F)F)c3)[C@@H](C(F)(F)F)O2)cc1 [Example 27, 4-((2R,5S)-5-((4-methoxyphenoxy)methyl)-2-(trifluoromethyl)oxazolidin-3-yl)-2-(trifluoromethyl)benzonitrile]
IC50 (androgen receptor (hAR) [2]; [3]): 22.4 nM

N#Cc1ccc(N2C[C@@H]([C@H](O)C(F)(F)F)O[C@@H]2C(F)(F)F)cc1C(F)(F)F [Example 24, 4-((2R,5S)-5-((S)-2,2,2-trifluoro-1-hydroxyethyl)-2-(trifluoromethyl)oxazolidin-3-yl)-2-(trifluoromethyl)benzonitrile]
IC50 (androgen receptor (hAR) [2]; [3]): 141 nM

N#Cc1ccc(OC[C@H]2CN(c3ccc(C#N)c(C(F)(F)F)c3)[C@H](C(F)(F)F)O2)cc1 [Example 20, 4-((2S,5R)-5-((4-cyanophenoxy)methyl)-2-(trifluoromethyl)oxazolidin-3-yl)-2-(trifluoromethyl)benzonitrile]
IC50 (androgen receptor (hAR) [2]; [3]): 1080 nM

N#Cc1ccc(N2C[C@@H](COc3ccc(F)c(F)c3)O[C@@H]2C(F)(F)F)cc1C(F)(F)F [Example 10, 4-((2R,5S)-5-((3,4-difluorophenoxy)methyl)-2-(trifluoromethyl)oxazolidin-3-yl)-2-(trifluoromethyl)benzonitrile]
EC50 (androgen receptor (hAR) [1]): 11.1 nM | IC50 (androgen receptor (hAR) [2]; [3]): 6.3 nM

N#Cc1ccc(COC[C@H]2CN(c3ccc(C#N)c(C(F)(F)F)c3)[C@H](C(F)(F)F)O2)cc1 [Example 4, 4-((2S,5R)-5-(((4-cyanobenzyl)oxy)methyl)-2-(trifluoromethyl)oxazolidin-3-yl)-2-(trifluoromethyl)benzonitrile]
IC50 (androgen receptor (hAR) [2]; [3]): 657 nM

N#Cc1ccc(N2C[C@@H](COc3ccc([N+](=O)[O-])cc3)O[C@@H]2C(F)(F)F)cc1C(F)(F)F [Example 8, 4-((2R,5S)-5-((4-nitrophenoxy)methyl)-2-(trifluoromethyl)oxazolidin-3-yl)-2-(trifluoromethyl)benzonitrile]
EC50 (androgen receptor (hAR) [1]): 20 nM | IC50 (androgen receptor (hAR) [2]; [3]): 13.7 nM

N#Cc1ccc(OC[C@H]2CN(c3ccc(C#N)c(C(F)(F)F)c3)[C@@H](C(F)(F)F)O2)cc1 [Example 5, 4-((2R,5R)-5-((4-cyanophenoxy)methyl)-2-(trifluoromethyl)oxazolidin-3-yl)-2-(trifluoromethyl)benzonitrile]
IC50 (androgen receptor (hAR) [2]): 91.6 nM

COC(=O)c1ccc(OC[C@@H]2CN(c3ccc(C#N)c(C(F)(F)F)c3)[C@@H](C(F)(F)F)O2)cc1 [Example 7, methyl 4-(((2R,5S)-3-(4-cyano-3-(trifluoromethyl)phenyl)-2-(trifluoromethyl)oxazolidin-5-yl)methoxy)benzoate]
EC50 (androgen receptor (hAR) [1]): 13.1 nM | IC50 (androgen receptor (hAR) [2]; [3]): 15.7 nM

N#Cc1ccc(N2C[C@@H](COc3ccc([N+](=O)[O-])cc3)O[C@H]2C(F)(F)F)cc1C(F)(F)F [Example 35, 4-((2S,5S)-5-((4-nitrophenoxy)methyl)-2-(trifluoromethyl)oxazolidin-3-yl)-2-(trifluoromethyl)benzonitrile]
IC50 (androgen receptor (hAR) [2]; [3]): 185 nM

CNC(=O)c1ccc(OC[C@@H]2CN(c3ccc(C#N)c(C(F)(F)F)c3)[C@@H](C(F)(F)F)O2)cc1 [Example 32, 4-(((2R,5S)-3-(4-cyano-3-(trifluoromethyl)phenyl)-2-(trifluoromethyl)oxazolidin-5-yl)methoxy)-N-methylbenzamide]
IC50 (androgen receptor (hAR) [2]; [3]): 32.7 nM

N#Cc1ccc(SC[C@@H]2CN(c3ccc(C#N)c(C(F)(F)F)c3)[C@@H](C(F)(F)F)O2)cc1 [Example 29, 4-((2R,5S)-5-(((4-cyanophenyl)thio)methyl)-2-(trifluoromethyl)oxazolidin-3-yl)-2-(trifluoromethyl)benzonitrile]
EC50 (androgen receptor (hAR) [1]): 7.5 nM | IC50 (androgen receptor (hAR) [2]; [3]): 14.1 nM

N#Cc1ccc(N2C[C@@H](COc3cc(F)c(F)cc3F)O[C@@H]2C(F)(F)F)cc1C(F)(F)F [Example 13, 2-(trifluoromethyl)-4-((2R,5S)-2-(trifluoromethyl)-5-((2,4,5-trifluorophenoxy)methyl)oxazolidin-3-yl)benzonitrile]
EC50 (androgen receptor (hAR) [1]): 9.9 nM | IC50 (androgen receptor (hAR) [2]; [3]): 14.5 nM

N#Cc1ccc(N2C[C@@H]([C@@H](O)C(F)(F)F)O[C@@H]2C(F)(F)F)cc1C(F)(F)F [Example 23, 4-((2R,5S)-5-((R)-2,2,2-trifluoro-1-hydroxyethyl)-2-(trifluoromethyl)oxazolidin-3-yl)-2-(trifluoromethyl)benzonitrile]
IC50 (androgen receptor (hAR) [2]; [3]): 44.3 nM

N#Cc1ccc(N2C[C@@H](COc3ccc([N+](=O)[O-])cc3Cl)O[C@@H]2C(F)(F)F)cc1C(F)(F)F [Example 12, 4-((2R,5S)-5-((2-chloro-4-nitrophenoxy)methyl)-2-(trifluoromethyl)oxazolidin-3-yl)-2-(trifluoromethyl)benzonitrile]
IC50 (androgen receptor (hAR) [2]; [3]): 145 nM

COc1cccc(OC[C@@H]2CN(c3ccc(C#N)c(C(F)(F)F)c3)[C@@H](C(F)(F)F)O2)c1 [Example 28, 4-((2R,5S)-5-((3-methoxyphenoxy)methyl)-2-(trifluoromethyl)oxazolidin-3-yl)-2-(trifluoromethyl)benzonitrile]
IC50 (androgen receptor (hAR) [2]; [3]): 77.2 nM

N#Cc1ccc(N2C[C@H]([C@@H](O)C(F)(F)F)O[C@H]2C(F)(F)F)cc1C(F)(F)F [Example 21, 4-((2S,5R)-5-((R)-2,2,2-trifluoro-1-hydroxyethyl)-2-(trifluoromethyl)oxazolidin-3-yl)-2-(trifluoromethyl)benzonitrile]
IC50 (androgen receptor (hAR) [2]; [3]): 1060 nM

N#Cc1ccc(N2C[C@H]([C@H](O)C(F)(F)F)O[C@H]2C(F)(F)F)cc1C(F)(F)F [Example 22, 4-((2S,5R)-5-((S)-2,2,2-trifluoro-1-hydroxyethyl)-2-(trifluoromethyl)oxazolidin-3-yl)-2-(trifluoromethyl)benzonitrile]
IC50 (androgen receptor (hAR) [2]; [3]): 1870 nM

N#Cc1ccc(N2C[C@@H](COc3ccc(C(=O)O)cc3)O[C@@H]2C(F)(F)F)cc1C(F)(F)F [Example 9, 4-(((2R,5S)-3-(4-cyano-3-(trifluoromethyl)phenyl)-2-(trifluoromethyl)oxazolidin-5-yl)methoxy)benzoic acid]
IC50 (androgen receptor (hAR) [2]): 367 nM

COC(=O)Nc1ccc(OC[C@@H]2CN(c3ccc(C#N)c(C(F)(F)F)c3)[C@@H](C(F)(F)F)O2)cc1 [Example 36, methyl(4-(((2R,5S)-3-(4-cyano-3-(trifluoromethyl)phenyl)-2-(trifluoromethyl)oxazolidin-5-yl)methoxy)phenyl)carbamate]
EC50 (androgen receptor (hAR) [1]): 8.1 ± 1.9 nM | levator ani muscle weight % relative to intact control group (castrated male rats; 0.1 mg/kg): 18.6 ± 2.2% | seminal vesicles weight % relative to intact control group (castrated male rats; 0.1 mg/kg): 2.4 ± 0.6% | ventral prostate weight % relative to intact control group (castrated male rats; 0.1 mg/kg): 1.0 ± 0.1% | levator ani muscle weight % relative to intact control group (castrated male rats; 0.3 mg/kg): 18.8 ± 2.7% | seminal vesicles weight % relative to intact control group (castrated male rats; 0.3 mg/kg): −0.2 ± 0.0% | ventral prostate weight % relative to intact control group (castrated male rats; 0.3 mg/kg): 0.6 ± 0.1% | levator ani muscle weight % relative to intact control group (castrated male rats; 1 mg/kg): 53.9 ± 6.5% | seminal vesicles weight % relative to intact control group (castrated male rats; 1 mg/kg): 4.7 ± 1.0% | ventral prostate weight % relative to intact control group (castrated male rats; 1 mg/kg): 8.0 ± 1.6% | levator ani muscle weight % relative to intact control group (castrated male rats; 3 mg/kg): 47.0 ± 2.6% | seminal vesicles weight % relative to intact control group (castrated male rats; 3 mg/kg): 3.0 ± 0.7% | ventral prostate weight % relative to intact control group (castrated male rats; 3 mg/kg): 4.7 ± 1.9% | levator ani muscle weight % relative to intact control group (castrated male rats; 10 mg/kg): 55.2 ± 10.3% | seminal vesicles weight % relative to intact control group (castrated male rats; 10 mg/kg): 4.7 ± 0.7% | ventral prostate weight % relative to intact control group (castrated male rats; 10 mg/kg): 5.8 ± 0.8% | levator ani muscle weight % relative to intact control group (castrated male rats; 30 mg/kg): 58.2 ± 5.8% | seminal vesicles weight % relative to intact control group (castrated male rats; 30 mg/kg): 10.4 ± 3.1% | ventral prostate weight % relative to intact control group (castrated male rats; 30 mg/kg): 10.8 ± 3.1% | levator ani muscle weight % relative to intact control group (castrated male rats; 100 mg/kg): 65.3 ± 7.9% | seminal vesicles weight % relative to intact control group (castrated male rats; 100 mg/kg): 16.1 ± 4.0% | ventral prostate weight % relative to intact control group (castrated male rats; 100 mg/kg): 12.6 ± 3.1%
